Measured values from ChEMBL document CHEMBL3991601, “The target landscape of clinical kinase drugs” (Science, 2017).
The source made the active and inactive calls. Cut-off read from the data, not from the text of the source, for most assays here: actives have a measured Kd and inactives only a lower limit.

Experiments:
[1] = target: T1, Serine/threonine-protein kinase TAO1 (Homo sapiens, UniProt Q7L7X3)
T1 sequence (Q7L7X3 whole entry): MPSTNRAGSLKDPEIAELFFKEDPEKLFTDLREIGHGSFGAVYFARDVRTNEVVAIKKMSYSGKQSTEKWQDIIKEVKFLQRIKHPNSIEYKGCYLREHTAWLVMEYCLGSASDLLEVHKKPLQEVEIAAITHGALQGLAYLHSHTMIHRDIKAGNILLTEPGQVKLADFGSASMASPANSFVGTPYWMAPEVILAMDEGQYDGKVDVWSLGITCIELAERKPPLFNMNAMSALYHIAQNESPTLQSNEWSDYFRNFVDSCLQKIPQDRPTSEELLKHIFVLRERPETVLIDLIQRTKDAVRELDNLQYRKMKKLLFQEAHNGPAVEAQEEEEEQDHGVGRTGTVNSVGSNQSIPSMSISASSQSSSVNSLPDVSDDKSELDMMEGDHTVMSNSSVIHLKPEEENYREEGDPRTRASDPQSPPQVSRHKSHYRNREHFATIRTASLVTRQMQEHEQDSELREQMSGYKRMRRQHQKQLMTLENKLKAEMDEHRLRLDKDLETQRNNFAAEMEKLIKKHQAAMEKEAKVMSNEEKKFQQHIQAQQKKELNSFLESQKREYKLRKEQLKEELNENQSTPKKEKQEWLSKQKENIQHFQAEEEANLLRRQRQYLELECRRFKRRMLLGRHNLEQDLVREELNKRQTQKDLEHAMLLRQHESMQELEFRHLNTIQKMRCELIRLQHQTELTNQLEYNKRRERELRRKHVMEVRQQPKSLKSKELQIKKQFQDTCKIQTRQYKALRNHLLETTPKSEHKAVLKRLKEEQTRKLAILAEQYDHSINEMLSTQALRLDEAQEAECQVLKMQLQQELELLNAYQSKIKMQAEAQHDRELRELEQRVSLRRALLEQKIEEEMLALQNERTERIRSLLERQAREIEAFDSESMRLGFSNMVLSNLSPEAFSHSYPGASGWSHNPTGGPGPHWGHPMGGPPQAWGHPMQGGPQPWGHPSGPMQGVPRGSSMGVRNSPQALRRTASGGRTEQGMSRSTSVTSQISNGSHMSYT

[2] = target: Ribosomal protein S6 kinase beta-1 (Homo sapiens, UniProt P23443)
[3] = target: 26S proteasome regulatory subunit 6B (Homo sapiens, UniProt P43686)
Ephrin type-A receptor 5 = Ephrin type-A receptor 5 (Homo sapiens, UniProt P54756)
[4] = target: Mitogen-activated protein kinase 9 (Homo sapiens, UniProt P45984)
[5] = target: T2, Receptor-type tyrosine-protein kinase FLT3 (Homo sapiens, UniProt P36888)
T2 sequence (P36888 whole entry): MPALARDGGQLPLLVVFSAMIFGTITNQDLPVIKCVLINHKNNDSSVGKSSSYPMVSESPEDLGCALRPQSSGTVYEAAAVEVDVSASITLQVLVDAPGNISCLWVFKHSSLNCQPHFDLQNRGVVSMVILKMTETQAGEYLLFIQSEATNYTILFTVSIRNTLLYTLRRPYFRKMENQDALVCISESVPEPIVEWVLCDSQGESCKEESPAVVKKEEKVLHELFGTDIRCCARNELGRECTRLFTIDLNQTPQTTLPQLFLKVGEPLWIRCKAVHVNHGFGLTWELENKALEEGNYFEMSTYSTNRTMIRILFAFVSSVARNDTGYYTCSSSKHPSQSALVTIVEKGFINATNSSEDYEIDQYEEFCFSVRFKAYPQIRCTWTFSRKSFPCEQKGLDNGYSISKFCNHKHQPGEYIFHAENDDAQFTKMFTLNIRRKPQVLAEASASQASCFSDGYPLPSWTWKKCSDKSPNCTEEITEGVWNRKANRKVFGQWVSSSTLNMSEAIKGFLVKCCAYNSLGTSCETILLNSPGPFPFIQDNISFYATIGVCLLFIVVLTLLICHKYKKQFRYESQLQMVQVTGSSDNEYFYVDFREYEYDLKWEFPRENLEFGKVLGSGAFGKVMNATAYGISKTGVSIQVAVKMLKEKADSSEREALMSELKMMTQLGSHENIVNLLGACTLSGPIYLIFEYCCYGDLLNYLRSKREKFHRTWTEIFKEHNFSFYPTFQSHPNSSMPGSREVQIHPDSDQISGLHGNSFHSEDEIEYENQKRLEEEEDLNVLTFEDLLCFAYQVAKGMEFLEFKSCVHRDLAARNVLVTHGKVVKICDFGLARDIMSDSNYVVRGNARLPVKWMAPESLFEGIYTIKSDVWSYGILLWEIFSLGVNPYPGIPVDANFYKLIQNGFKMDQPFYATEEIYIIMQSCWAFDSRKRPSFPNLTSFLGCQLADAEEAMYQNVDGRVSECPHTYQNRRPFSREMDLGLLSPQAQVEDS

[6] = target: Inosine-5'-monophosphate dehydrogenase 2 (Homo sapiens, UniProt P12268)
[7] = target: cAMP-dependent protein kinase type II-alpha regulatory subunit (Homo sapiens, UniProt P13861)
Activin receptor type-2B = Activin receptor type-2B (Homo sapiens, UniProt Q13705)
[8] = target: T3, Interleukin-1 receptor-associated kinase 3 (Homo sapiens, UniProt Q9Y616)
T3 sequence (Q9Y616 whole entry): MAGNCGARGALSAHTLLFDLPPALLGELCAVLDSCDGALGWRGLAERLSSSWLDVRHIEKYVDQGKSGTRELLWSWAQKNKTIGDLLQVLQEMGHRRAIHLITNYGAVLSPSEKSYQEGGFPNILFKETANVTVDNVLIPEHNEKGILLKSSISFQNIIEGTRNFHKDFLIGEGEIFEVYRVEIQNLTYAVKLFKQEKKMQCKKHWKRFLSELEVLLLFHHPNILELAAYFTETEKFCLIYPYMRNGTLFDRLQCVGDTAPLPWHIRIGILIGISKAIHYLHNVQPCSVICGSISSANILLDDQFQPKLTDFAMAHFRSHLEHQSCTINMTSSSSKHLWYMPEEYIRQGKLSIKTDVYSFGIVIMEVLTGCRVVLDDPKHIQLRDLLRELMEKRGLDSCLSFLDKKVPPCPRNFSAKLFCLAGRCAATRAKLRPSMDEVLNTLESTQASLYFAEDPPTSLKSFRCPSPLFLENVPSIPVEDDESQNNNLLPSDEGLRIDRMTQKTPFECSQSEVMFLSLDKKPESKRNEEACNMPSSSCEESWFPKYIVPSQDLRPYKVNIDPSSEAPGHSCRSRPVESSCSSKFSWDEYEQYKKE

[9] = target: Tyrosine-protein kinase SYK (Homo sapiens, UniProt P43405)
Note: in the data inactive means no Kd found up to 30 µM.

Chain of Ribosomal protein S6 kinase beta-1 (P23443 whole entry): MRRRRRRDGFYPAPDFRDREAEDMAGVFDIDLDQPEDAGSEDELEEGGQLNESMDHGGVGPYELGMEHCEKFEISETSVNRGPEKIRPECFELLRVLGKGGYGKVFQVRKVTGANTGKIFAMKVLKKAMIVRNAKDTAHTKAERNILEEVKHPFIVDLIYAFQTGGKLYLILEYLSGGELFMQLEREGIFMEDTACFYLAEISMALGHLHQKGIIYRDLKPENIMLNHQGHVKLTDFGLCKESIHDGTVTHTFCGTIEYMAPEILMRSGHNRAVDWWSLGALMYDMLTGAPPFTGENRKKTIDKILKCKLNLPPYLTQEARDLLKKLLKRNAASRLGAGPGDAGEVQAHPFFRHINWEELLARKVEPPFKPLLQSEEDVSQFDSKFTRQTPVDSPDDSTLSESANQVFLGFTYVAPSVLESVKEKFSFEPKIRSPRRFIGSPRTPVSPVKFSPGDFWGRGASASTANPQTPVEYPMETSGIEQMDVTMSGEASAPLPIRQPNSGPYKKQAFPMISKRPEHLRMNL
Chain of Activin receptor type-2B (Q13705 whole entry): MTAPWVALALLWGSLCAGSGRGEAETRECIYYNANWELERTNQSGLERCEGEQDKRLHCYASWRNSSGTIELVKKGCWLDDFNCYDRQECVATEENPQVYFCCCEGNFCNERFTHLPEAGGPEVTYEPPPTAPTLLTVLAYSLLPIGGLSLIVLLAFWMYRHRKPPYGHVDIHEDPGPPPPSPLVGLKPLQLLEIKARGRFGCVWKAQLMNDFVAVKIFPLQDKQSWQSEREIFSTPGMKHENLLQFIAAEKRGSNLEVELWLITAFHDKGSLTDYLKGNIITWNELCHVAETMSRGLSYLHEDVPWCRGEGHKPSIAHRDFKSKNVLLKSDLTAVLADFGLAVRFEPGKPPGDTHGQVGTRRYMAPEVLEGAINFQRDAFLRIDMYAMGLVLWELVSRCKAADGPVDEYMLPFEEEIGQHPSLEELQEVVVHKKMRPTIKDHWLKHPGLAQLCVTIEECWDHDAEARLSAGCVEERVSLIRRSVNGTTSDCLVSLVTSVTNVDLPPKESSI
Chain of cAMP-dependent protein kinase type II-alpha regulatory subunit (P13861 whole entry): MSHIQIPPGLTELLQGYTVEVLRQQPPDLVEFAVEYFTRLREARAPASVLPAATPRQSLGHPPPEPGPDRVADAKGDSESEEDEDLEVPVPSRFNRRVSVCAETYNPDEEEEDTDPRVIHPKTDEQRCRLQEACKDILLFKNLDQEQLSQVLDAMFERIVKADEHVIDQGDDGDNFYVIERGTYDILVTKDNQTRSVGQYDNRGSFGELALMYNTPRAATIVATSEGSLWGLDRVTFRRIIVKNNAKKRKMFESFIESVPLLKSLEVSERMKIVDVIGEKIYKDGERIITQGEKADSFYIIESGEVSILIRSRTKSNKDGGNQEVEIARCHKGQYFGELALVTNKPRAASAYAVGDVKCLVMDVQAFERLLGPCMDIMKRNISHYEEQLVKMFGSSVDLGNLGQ
Chain of Mitogen-activated protein kinase 9 (P45984 whole entry): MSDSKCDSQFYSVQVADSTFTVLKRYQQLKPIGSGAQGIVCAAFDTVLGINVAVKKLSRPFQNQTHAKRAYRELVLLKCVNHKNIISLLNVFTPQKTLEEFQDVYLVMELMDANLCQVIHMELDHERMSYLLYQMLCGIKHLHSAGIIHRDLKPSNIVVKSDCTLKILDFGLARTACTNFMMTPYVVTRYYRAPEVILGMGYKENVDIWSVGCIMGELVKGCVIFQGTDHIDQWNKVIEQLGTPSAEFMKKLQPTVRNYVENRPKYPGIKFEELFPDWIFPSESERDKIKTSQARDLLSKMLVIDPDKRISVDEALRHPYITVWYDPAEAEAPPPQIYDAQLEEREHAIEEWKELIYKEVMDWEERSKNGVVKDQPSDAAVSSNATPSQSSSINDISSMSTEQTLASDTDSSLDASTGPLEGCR
Chain of Ephrin type-A receptor 5 (P54756 whole entry): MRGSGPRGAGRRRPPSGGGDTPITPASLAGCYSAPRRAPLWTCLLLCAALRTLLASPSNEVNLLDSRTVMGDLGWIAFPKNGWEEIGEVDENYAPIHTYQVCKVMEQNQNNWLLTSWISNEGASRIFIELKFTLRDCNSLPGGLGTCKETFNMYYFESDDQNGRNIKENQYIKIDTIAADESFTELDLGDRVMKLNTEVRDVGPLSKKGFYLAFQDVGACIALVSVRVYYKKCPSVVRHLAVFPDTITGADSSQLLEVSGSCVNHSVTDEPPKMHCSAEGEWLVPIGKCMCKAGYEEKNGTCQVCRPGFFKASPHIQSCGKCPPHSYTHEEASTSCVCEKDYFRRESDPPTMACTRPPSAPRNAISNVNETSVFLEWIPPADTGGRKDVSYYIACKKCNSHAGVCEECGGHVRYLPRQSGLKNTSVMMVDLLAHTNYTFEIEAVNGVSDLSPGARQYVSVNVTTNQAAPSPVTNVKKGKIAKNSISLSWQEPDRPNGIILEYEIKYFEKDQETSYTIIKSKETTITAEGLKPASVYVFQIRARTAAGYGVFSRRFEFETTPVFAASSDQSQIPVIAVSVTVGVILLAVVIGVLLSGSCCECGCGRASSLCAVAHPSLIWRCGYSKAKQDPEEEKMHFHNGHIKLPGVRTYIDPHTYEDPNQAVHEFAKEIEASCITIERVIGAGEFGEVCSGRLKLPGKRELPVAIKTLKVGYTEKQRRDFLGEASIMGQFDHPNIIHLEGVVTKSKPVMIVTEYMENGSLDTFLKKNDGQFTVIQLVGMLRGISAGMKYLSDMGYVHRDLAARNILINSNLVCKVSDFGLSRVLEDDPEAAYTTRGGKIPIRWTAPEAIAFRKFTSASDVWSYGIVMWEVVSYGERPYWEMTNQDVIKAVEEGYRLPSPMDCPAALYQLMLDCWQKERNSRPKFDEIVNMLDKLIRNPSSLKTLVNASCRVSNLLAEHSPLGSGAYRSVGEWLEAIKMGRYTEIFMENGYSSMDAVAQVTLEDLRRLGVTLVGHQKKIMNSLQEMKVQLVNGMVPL
Chain of 26S proteasome regulatory subunit 6B (P43686 whole entry): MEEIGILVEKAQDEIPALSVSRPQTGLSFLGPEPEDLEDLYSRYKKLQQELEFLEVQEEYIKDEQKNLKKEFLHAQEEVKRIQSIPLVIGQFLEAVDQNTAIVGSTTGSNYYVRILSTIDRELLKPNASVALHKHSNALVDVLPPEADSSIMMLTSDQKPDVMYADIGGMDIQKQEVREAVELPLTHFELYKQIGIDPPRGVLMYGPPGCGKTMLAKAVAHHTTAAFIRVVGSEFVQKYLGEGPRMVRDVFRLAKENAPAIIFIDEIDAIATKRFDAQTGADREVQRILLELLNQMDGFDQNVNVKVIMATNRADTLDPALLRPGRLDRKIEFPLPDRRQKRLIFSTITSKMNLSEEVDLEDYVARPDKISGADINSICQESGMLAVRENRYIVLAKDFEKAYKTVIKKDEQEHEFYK

Row | Compound | Kd [1] | Kd [2] | Kd [3] | Kd (Ephrin type-A receptor 5) | Kd [4] | Kd [5] | Kd [6] | Kd [7] | Kd (Activin receptor type-2B) | Kd [8] | Kd [9]
1 | O=c1sn(-c2cccc3ccccc23)c(=O)n1Cc1ccccc1 [TIDEGLUSIB] | > 30 µM (inactive) | > 30 µM (inactive) | > 30 µM (inactive) | > 30 µM (inactive) | > 30 µM (inactive) | > 30 µM (inactive) | > 30 µM (inactive) | > 30 µM (inactive) | > 30 µM (inactive) | > 30 µM (inactive) | > 30 µM (inactive)
2 | Cn1ncc(Cl)c1-c1cc(C(=O)N[C@H](CN)Cc2cccc(F)c2)sc1Cl [AFURESERTIB] | > 30 µM (inactive) | > 30 µM (inactive) | > 30 µM (inactive) | > 30 µM (inactive) | > 30 µM (inactive) | > 30 µM (inactive) | > 30 µM (inactive) | > 30 µM (inactive) | > 30 µM (inactive) | > 30 µM (inactive) | > 30 µM (inactive)
3 | CNS(=O)(=O)Nc1nccc(Cc2c(C)c3ccc(Oc4ncccn4)cc3oc2=O)c1F [AVUTOMETINIB] | > 30 µM (inactive) | > 30 µM (inactive) | > 30 µM (inactive) | > 30 µM (inactive) | > 30 µM (inactive) | > 30 µM (inactive) | > 30 µM (inactive) | > 30 µM (inactive) | > 30 µM (inactive) | > 30 µM (inactive) | > 30 µM (inactive)
4 | COc1ccc(-c2ccc3c(N4CCOC[C@@H]4C)nc(N4CCOC[C@@H]4C)nc3n2)cc1CO [AZD-8055] | > 30 µM (inactive) | > 30 µM (inactive) | > 30 µM (inactive) | > 30 µM (inactive) | > 30 µM (inactive) | > 30 µM (inactive) | > 30 µM (inactive) | > 30 µM (inactive) | > 30 µM (inactive) | > 30 µM (inactive) | > 30 µM (inactive)
5 | CNC(=O)CN1CCC(Oc2cc3c(Nc4cccc(Cl)c4F)ncnc3cc2OC)CC1 [SAPITINIB] | > 30 µM (inactive) | > 30 µM (inactive) | > 30 µM (inactive) | 0.835 µM (active) | > 30 µM (inactive) | > 30 µM (inactive) | > 30 µM (inactive) | > 30 µM (inactive) | > 30 µM (inactive) | > 30 µM (inactive) | > 30 µM (inactive)
6 | CCCS(=O)(=O)Nc1ccc(F)c(C(=O)c2c[nH]c3ncc(-c4ccc(Cl)cc4)cc23)c1F [VEMURAFENIB] | > 30 µM (inactive) | > 30 µM (inactive) | > 30 µM (inactive) | > 30 µM (inactive) | > 30 µM (inactive) | > 30 µM (inactive) | > 30 µM (inactive) | > 30 µM (inactive) | > 30 µM (inactive) | > 30 µM (inactive) | > 30 µM (inactive)
7 | CNC(=O)c1ccc(-c2cnc3ncc(Cc4ccc5ncccc5c4)n3n2)cc1F [CAPMATINIB] | > 30 µM (inactive) | > 30 µM (inactive) | > 30 µM (inactive) | > 30 µM (inactive) | > 30 µM (inactive) | > 30 µM (inactive) | > 30 µM (inactive) | > 30 µM (inactive) | > 30 µM (inactive) | > 30 µM (inactive) | > 30 µM (inactive)
8 | COc1cc(OC)c(/C=C/S(=O)(=O)Cc2ccc(OC)c(NCC(=O)O)c2)c(OC)c1 [RIGOSERTIB] | > 30 µM (inactive) | > 30 µM (inactive) | > 30 µM (inactive) | > 30 µM (inactive) | > 30 µM (inactive) | > 30 µM (inactive) | > 30 µM (inactive) | > 30 µM (inactive) | > 30 µM (inactive) | > 30 µM (inactive) | > 30 µM (inactive)
9 | Cn1cc(-c2ccc(F)c(C(F)(F)F)c2)nc1C1CCN(c2ncnc3[nH]ncc23)CC1 [LY-2584702] | > 30 µM (inactive) | 0.015 µM (active) | > 30 µM (inactive) | > 30 µM (inactive) | > 30 µM (inactive) | > 30 µM (inactive) | > 30 µM (inactive) |  | > 30 µM (inactive) | > 30 µM (inactive) | > 30 µM (inactive)
10 | CC[C@H](Nc1ncnc2[nH]cnc12)c1nc2cccc(F)c2c(=O)n1-c1ccccc1 [IDELALISIB] | > 30 µM (inactive) | > 30 µM (inactive) | > 30 µM (inactive) | > 30 µM (inactive) | > 30 µM (inactive) | > 30 µM (inactive) | > 30 µM (inactive) | > 30 µM (inactive) | > 30 µM (inactive) | > 30 µM (inactive) | > 30 µM (inactive)
11 | CN1N=C(N)c2cn([C@@H]3O[C@H](COP(=O)(O)O)[C@@H](O)[C@H]3O)c3ncnc1c23 [TRICIRIBINE PHOSPHATE] | > 30 µM (inactive) | > 30 µM (inactive) | > 30 µM (inactive) | > 30 µM (inactive) | > 30 µM (inactive) | > 30 µM (inactive) | > 30 µM (inactive) | > 30 µM (inactive) | > 30 µM (inactive) | > 30 µM (inactive) | > 30 µM (inactive)
12 | CN1CCC(CNc2ccc3ncc(-c4cccc(OC(F)(F)F)c4)n3n2)CC1 [SGI-1776] | > 30 µM (inactive) | > 30 µM (inactive) | > 30 µM (inactive) | > 30 µM (inactive) | > 30 µM (inactive) | 0.143 µM (active) | > 30 µM (inactive) | > 30 µM (inactive) | > 30 µM (inactive) | 0.026 µM (active) | > 30 µM (inactive)
13 | N[C@@H]1CCCN(c2c(/C=C3\SC(=O)NC3=O)cccc2-c2ccccc2)C1 | > 30 µM (inactive) | > 30 µM (inactive) | > 30 µM (inactive) |  | > 30 µM (inactive) | > 30 µM (inactive) | > 30 µM (inactive) | > 30 µM (inactive) | > 30 µM (inactive) | > 30 µM (inactive) | > 30 µM (inactive)
